Key:
[1] = cited from earlier work
[2] = tested on: chick chorioallantoic membrane (CAM); assay: Chick egg chorioallantoic membrane (CAM) assay, 6-day, growing vessels: inhibition of angiogenesis; type: in vivo; conditions: for antiangiogenic activity relative to suramin: CAM assay / inhibition of angiogenesis, versus suramin; for inhibition of angiogenesis in the 6-day CAM, in words: rapidly growing vessels; for inhibition in vivo at 70 nmol: Gallus gallus, Tables 1 and 2, dose not given, Em = number of embryos, read-out: % Ih (Inhibition)
Source text: The purpose of this experiment was to test the ability of the phosphonic acid agents described above to inhibit angiogenesis. […]
(§1) Comparison of the inhibition of angiogenesis by 70 nmol of
(§2) suramin or a equimolar amount of a phosphonic acid agents in the
(§3) 6-day and 11-day chick egg chorioallantoic (CAM) assay.

MMP-2 = MMP-2 activity by zymography, human microvascular endothelial cells; type: cell-based; conditions: for inhibition of MMP-2 activity: human microvascular endothelial cells, zymography; for inhibition of bFGF-induced increase in MMP-2 activity: with bFGF
Source text: Matrix metalloproteinases are an important group of zinc enzymes responsible for the degradation of the extracellular matrix components, such as collagen and proteoglycans. Currently, 16 family members have been identified. MMP family member differ from each other structurally by the presence or absence of domains that contribute to activities such as substrate specificity, inhibitor binding, matrix binding and cell surface localization (Powell and Matrisian, 1996). To determine if the phosphonic acid agents were effective inhibitors of the MMP's of endothelial cells, cells were incubated in the presence of the different agents for 48 hours. Tissue samples were taken and subjected to zymography. Tissue samples were placed in glass homogenizers in a three fold weight/volume of lysis buffer consisting of 50 mM Tris-HCL, pH=7.4, with 200 mM sodium chloride and 0.1% Triton X-100. The samples were homogenized and centrifuged at 1500 g for 20 min. The supernatant was immediately analyzed by zymography. Protein content of each sample was determined by a modified Lowry method.
MMP enzyme activity was detected using polyacrylamide gel eltrophoresis zymography. SDS-polyacrylamide gel electrophoresis (PAGE) was performed using 8% acrylamide gels containing 0.1% gelatin. The volume of test samples loaded was 15 μl. Electrophoresis was run at 4° C. at a constant voltage (100 volts). After electrophoresis, gels were incubated in Triton X-100 (2.5%) for 30 minutes to eliminate SDS, prior to being incubated overnight in 50 mM Tris HCL, pH7.5, containing 10 mM CaCl2 at 37° C. The gels were stained in 0.25% (W/v) Coomassie Brilliant Blue and destained in methanol:acetic acid:water (50:40:10). The clear zones in these gels indicates the presence of proteins with gelatinolytic activity. This method allows for identification of pro-metalloproteinases.Migration position of proteins and with standard molecular weight and supernatant from HT 1080 cells that express MMP-2 and MMP-9 were used as controls.

[3] = tested on: human dermal microvascular and porcine pulmonary artery endothelial cells; assay: bFGF-stimulated and non-stimulated endothelial cell growth (total protein, total DNA); type: cell-based; conditions: 25 μM
Source text: Suramin is a highly charged molecule with six sulfonate groups that are ionized at physiologic pH.

[4] = tested on: chick chorioallantoic membrane (CAM); assay: Chick egg chorioallantoic membrane (CAM) assay, 11-day, established vessels; type: in vivo; conditions: for 11-day CAM % Inhibition: 70 nmol or equimolar amount; for inhibitory activity in the 11-day CAM, in words: established vessels
Method: According to Ausprunk et al. (1974), capillary angiogenesis in the CAM is completed by day 11. Measurements of intercapillary distances are also consistent with the cessation of capillary growth after day 10. […] The implants were prepared as previously described by Gagliardi et al. (1992), implanted on day 11 and read on day 13.
as §1, §2, §3

[5] = tested on: human dermal Microvascular endothelial cells; assay: Inhibition of bFGF-stimulated growth of human microvascular endothelial cells; type: cell-based; conditions: for IC50: Homo sapiens, Endothelial cell, bFGF-stimulated, estimated from dose response curve
Method: Inhibition of cell growth was evaluated by measuring total protein and total DNA and the IC50 was estimated for each dose response curve.

[6] = tested on: different cancer cell lines; assay: MTT cell proliferation, different cancer cell lines; type: cell-based, human; conditions: cancer cell lines in vitro

Compound | antiangiogenic activity relative to suramin [2] | effect on bFGF stimulation of endothelial cell growth [3] | effect on total protein content versus unstimulated control [3] | inhibition in vivo at 70 nmol [2] [%] | also measured
CN1CCCC1=O [N-methyl-2-pyrrolidone] |  |  |  |  | toxicity in Ames type assays and chronic exposure studies ([1]; Wells et al.): have not revealed any significant toxicity; irritation or sensitization potential ([1]; animal and human experiments): very little irritation or sensitization potential
O=C(Nc1cccc(C(=O)Nc2cccc(C(=O)Nc3cccc(P(=O)(O)O)c3)c2)c1)Nc1cccc(C(=O)Nc2cccc(C(=O)Nc3cccc(P(=O)(O)O)c3)c2)c1 [NF 050] | 2 to 4 times | inhibited the stimulation of endothelial cell growth by bFGF | significantly reduced total protein content far below the unstimulated control endothelial cells |  | inhibition of MMP-2 activity (MMP-2): potent inhibitors of MMP-2 activity; inhibition of bFGF-induced increase in MMP-2 activity (MMP-2): inhibited the increase in MMP-2 activity induced by bFGF
O=C(Nc1cccc(C(=O)Nc2ccc(P(=O)(O)O)cc2)c1)Nc1cccc(C(=O)Nc2ccc(P(=O)(O)O)cc2)c1 [NF 067] | 2 to 4 times | inhibited the stimulation of endothelial cell growth by bFGF | significantly reduced total protein content far below the unstimulated control endothelial cells | 62 | inhibition of angiogenesis in the 6-day CAM, in words [2]: very potent inhibitors of angiogenesis; ID50, dose that produces 50% inhibition of angiogenesis ([2]; CAM assay): 32 nmol; 11-day CAM % Inhibition [4]: 0%; inhibitory activity in the 11-day CAM, in words [4]: no significant inhibitory activity; IC50 [5]: 19.4 µM; potency relative to suramin, inhibition of endothelial cell growth ([5]; versus suramin, in vitro): 20 times; antiproliferative activity, in words [6]: very low antiproliferative activity
O=C(Nc1cccc(C(=O)Nc2cccc(P(=O)(O)O)c2)c1)Nc1cccc(C(=O)Nc2cccc(P(=O)(O)O)c2)c1 [NF 068] |  |  |  | 0 | antiangiogenic activity relative to suramin or between groups, in words ([2]; CAM assay): does not show any antiangiogenic activity
O=C(Nc1ccc(C(=O)Nc2cccc(P(=O)(O)O)c2)cc1)Nc1ccc(C(=O)Nc2cccc(P(=O)(O)O)c2)cc1 [NF 069] | 4-8 times | inhibited the stimulation of endothelial cell growth by bFGF | significantly reduced total protein content far below the unstimulated control endothelial cells | 66 | inhibition of angiogenesis in the 6-day CAM, in words [2]: very potent inhibitors of angiogenesis; ID50, dose that produces 50% inhibition of angiogenesis ([2]; CAM assay): 9 nmol; 11-day CAM % Inhibition [4]: 0%; inhibitory activity in the 11-day CAM, in words [4]: no significant inhibitory activity; IC50 [5]: 75 µM
O=C(Nc1cccc(P(=O)(O)O)c1)Nc1cccc(P(=O)(O)O)c1 [NF 158] |  |  |  | 0 | 
O=C(Nc1ccc(P(=O)(O)O)cc1)Nc1ccc(P(=O)(O)O)cc1 [NF 161] | 2 to 4 times | inhibited the stimulation of endothelial cell growth by bFGF | significantly reduced total protein content far below the unstimulated control endothelial cells | 53 | 
O=C(Nc1ccc(P(=O)(O)O)cc1)c1ccc(NC(=S)Nc2ccc(C(=O)Nc3ccc(P(=O)(O)O)cc3)cc2)cc1 [NF 162] |  |  |  |  | inhibition of MMP-2 activity (MMP-2): potent inhibitors of MMP-2 activity; inhibition of bFGF-induced increase in MMP-2 activity (MMP-2): inhibited the increase in MMP-2 activity induced by bFGF
O=C(Nc1ccc(P(=O)(O)O)cc1)c1cc(NC(=O)c2cccc([N+](=O)[O-])c2)cc(C(=O)Nc2ccc(P(=O)(O)O)cc2)c1 [NF 167] | 2 to 4 times | inhibited the stimulation of endothelial cell growth by bFGF | significantly reduced total protein content far below the unstimulated control endothelial cells |  | 
O=C(Nc1ccc(OC(=O)P(=O)(O)O)cc1)Nc1ccc(OC(=O)P(=O)(O)O)cc1 [NF 392] |  |  |  | 6 | 
O=C(Nc1cccc(OC(=O)P(=O)(O)O)c1)Nc1cccc(OC(=O)P(=O)(O)O)c1 [NF 426] |  |  |  | 39 | 
O=C(Nc1ccc(NC(=O)P(=O)(O)O)cc1)Nc1ccc(NC(=O)P(=O)(O)O)cc1 [NF 428] | 2 to 4 times | inhibited the stimulation of endothelial cell growth by bFGF | significantly reduced total protein content far below the unstimulated control endothelial cells |  | 
O=C(Nc1ccccc1OC(=O)P(=O)(O)O)Nc1ccccc1OC(=O)P(=O)(O)O [NF 473] |  |  |  | 21 | 
Cc1cc(NC(=O)Nc2ccc(OC(=O)P(=O)(O)O)c(C)c2)ccc1OC(=O)P(=O)(O)O [NF 474] |  |  |  | 12 | 
O=C(Nc1ccc(C(=O)Nc2ccc(P(=O)(O)O)cc2)cc1)Nc1ccc(C(=O)Nc2ccc(P(=O)(O)O)cc2)cc1 [NF 681] | 4-8 times | inhibited the stimulation of endothelial cell growth by bFGF | significantly reduced total protein content far below the unstimulated control endothelial cells | 100 | inhibition of angiogenesis in the 6-day CAM, in words [2]: very potent inhibitors of angiogenesis; ID50, dose that produces 50% inhibition of angiogenesis ([2]; CAM assay): 2 nmol; 11-day CAM % Inhibition [4]: 0%; inhibitory activity in the 11-day CAM, in words [4]: no significant inhibitory activity; IC50 [5]: 1.5 µM; inhibition of MMP-2 activity (MMP-2): potent inhibitors of MMP-2 activity; inhibition of bFGF-induced increase in MMP-2 activity (MMP-2): inhibited the increase in MMP-2 activity induced by bFGF

Reference: US6160166A, “Phosphonated agents and their antiangiogenic and antitumorigenic use” (priority 1999, dated 2000)
